Laboratory results from patent US20140315834A1 (Medicon Pharmaceuticals, Inc., priority 2012, published 2014).
Read-outs that look alike come from different tables or passages of the source. Blank lines part the entries; values can stand above or below the compound they belong to.

Assays:
[1] = tested on: U87 glioblastoma cell line; experiment: 24-hour growth inhibition of glioblastoma cells; format: cell-based; settings: read-out: 24-h 1c50
[2] = tested on: A549 human lung cancer xenografts; experiment: A549 sc xenografts, i.v. PS in nanocarrier vs sulindac; format: in vivo, mice; settings: equimolar dose of sulindac 40 mg/kg
[3] = Pharmacokinetics of phosphosulindac amide, single oral dose; settings: after single oral dose 100 mg/kg PSA 95
[4] = design: AUC in lung: unit not given beside the values; settings: mouse, in vivo, inhaled or intranasal
[5] = mouse, in vivo, po, 100 mg/kg
[6] = tested on: MDA-MB-231 human BC cells; experiment: Orthotopic MDA-MB-231 breast cancer xenografts, prevention; format: in vivo, mice
[7] = Maximum tolerated dose of PA-III; design: species or system mice; settings: mouse, in vivo
Method: The ability of phospho-aspirin III (PA-III) 506 to prevent breast cancer (BC) was evaluated using MDA-MB-231 human BC cells xenografted into one of the mammary glands of nude mice (orthotopic xenografts). PA was administered orally, 120 mg/kg/d 1 week prior to inoculating the cells (the standard prevention protocol); acetylsalicylic acid (ASA) was given at an equimolar dose of 40 mg/kg/d. This was the highest dose of ASA that these mice could tolerate on a long-term basis. The dose of PA-III 506 represents <10% of its maximum tolerated dose (MTD>1,600 mg/kg), but was chosen so that a comparison between PA-III 506 and ASA was possible.

[8] = Levels of PA-III and metabolites in blood and xenografts by HPLC; format: in vivo; settings: mice treated with PA-III 506
A431 skin cancer cells = experiment: Cellular uptake, intracellular level by HPLC; settings: 1 hour incubation
[9] = Cardiotoxicity, histology of heart tissue sections; format: in vivo, mice; settings: treated for about 1.5 months
Text: Heart tissue sections from mice treated with PTI for about 1.5 months were examined histologically.

SW480 colon cancer cells = experiment: SW480 xenografts, prevention of colon cancer; format: in vivo, mice; settings: 10 mg/kg/day oral gavage, 43 days, end of study
Method: Six-week-old female athymic nude mice, i.e. lacking a thymus gland and having no T-cells (Taconic Farms, Germantown, N.Y.; in =6/group) were treated by oral gavage of PTI 10 mg/kg/day, or vehicle (corn oil) for a total of 43 days. Five days later, 1.2×10^6 SW480 colon cancer cells suspended in 100 μl of phosphate buffered saline (PBS) were inoculated subcutaneously to each flank of the mice. Tumor size was monitored by measuring the length (L) and width (W) with a digital caliper and the volume was calculated according to the formula, L×W×(L+W/2)×0.56.

[10] = Pharmacokinetics of PTI, plasma levels after i.p. dose
[11] = Gastrointestinal toxicity, gastric ulcers by H&E staining
[12] = tested on: Salmonella Typhimurium (TA98 and TA100); experiment: Genotoxicity, reverse mutation with and without rat liver S9; settings: TA98 and TA100, presence and absence of rat liver S9
CYP 2C19 = CYP 2C19 (Homo sapiens, UniProt P33261); settings: 37° C., NADPH-regenerating solution
CYP 2D6 = CYP 2D6 (Homo sapiens, UniProt P10635); settings: 37° C., NADPH-regenerating solution
CYP 2C9 = CYP 2C9 (Homo sapiens, UniProt P11712); settings: 37° C., NADPH-regenerating solution
CYP 3A4 = CYP 3A4 (Homo sapiens, UniProt P08684); settings: 37° C., NADPH-regenerating solution
CYP 1A2 = CYP 1A2 (Homo sapiens, UniProt P05177); settings: 37° C., NADPH-regenerating solution
[13] = tested on: AsPC-1, CFPAC-1, Capan-2, Panc-1 and MIA PaCa-2; experiment: Growth of human pancreatic cancer cell lines, 24 hours; format: cell-based; settings: escalating concentrations, all cell lines
Method: Cell growth was determined in the human pancreatic cancer cell lines AsPC-1, CFPAC-1, Capan-2, Panc-1 and MIA PaCa-2 after treatment with escalating concentrations of P-FTS 67 for 24 hours.

MIA PaCa-2 cells = experiment: MIA PaCa-2 pancreatic cancer xenografts; format: in vivo, mice; settings: for reduction of tumor volume growth: day 25
Method: The in vivo chemotherapeutic potential of P-FTS 67 was assessed using a pancreatic cancer xenograft model. MIA PaCa-2 cells were injected subcutaneously into the flank areas of nude mice. When palpable tumors were observed, the mice received P-FTS 67, 50 or 100 mg/kg/d by oral gavage in corn oil or just corn oil (control) for 25 days. On day 25 of treatment, P-FTS 67, 50 mg/kg/d, and P-FTS 67, 100 mg/kg/d reduced the tumor volume growth by 62% and 65%, respectively (p <0.05; FIG. 27).

[14] = Sub-chronic toxicity of P-FTS, 3 weeks oral gavage; format: in vivo, mice
Method: The toxicity of P-FTS in mice was further examined. Groups of 6 week-old female BALB/c mice (5 mice/group) were given by oral gavage once a day for 3 weeks P-FTS: 0, 75, 150, 250 and 350 mg/kg. […] The (sub-chronic) maximum tolerated dose of P-FTS 67 (3-week period of observation) was determined to be at least 350 mg/kg/d.

[15] = tested on: Ras (Ras-GTP) in Panc-1 cells; experiment: Ras-GTP pull down assay in cells; format: cell-based
Text: In the following experiments it was examined whether the pancreatic cancer growth inhibitory effect of P-FTS 67 is associated with down regulation of Ras signaling. For this purpose, the Ras-GTP pull down assay was used.

[16] = tested on: active Ras in MIA PaCa-2 xenografts; experiment: Ras-GTP pull down assay in xenograft lysates; format: in vivo, mice
Method: The inhibition of Ras by P-FTS 67 was further confirmed in vivo. The Ras-GTP pull down assay was used to test the capacity of P-FTS 67 to inhibit active Ras in fresh protein lysates from MIA PaCa-2 xenografts. Compared to controls, P-FTS 67, 50 and 100 mg/kg reduced RAS activation in xenografts by 62% and 70%, respectively (p<0.01, for both; FIG. 30A).

p-c-RAF = experiment: Immunostaining of xenograft tissue sections, p-c-RAF; format: in vivo, mice; settings: MIA PaCa-2 xenograft tissue sections
p-ERK1/2 = experiment: Immunostaining of xenograft tissue sections, p-ERK1/2; format: in vivo, mice; settings: MIA PaCa-2 xenograft tissue sections
[17] = Pharmacokinetics of PI-PEG and PI, i.p.; format: in vivo, mice; settings: equimolar doses
in vivo = settings: wt (wild type) and nude, mouse, po
[18] = rat, in vivo
[19] = 120 mg/kg/d orally, 20 treated mice

CYP 3A4, sequence (P08684 whole entry): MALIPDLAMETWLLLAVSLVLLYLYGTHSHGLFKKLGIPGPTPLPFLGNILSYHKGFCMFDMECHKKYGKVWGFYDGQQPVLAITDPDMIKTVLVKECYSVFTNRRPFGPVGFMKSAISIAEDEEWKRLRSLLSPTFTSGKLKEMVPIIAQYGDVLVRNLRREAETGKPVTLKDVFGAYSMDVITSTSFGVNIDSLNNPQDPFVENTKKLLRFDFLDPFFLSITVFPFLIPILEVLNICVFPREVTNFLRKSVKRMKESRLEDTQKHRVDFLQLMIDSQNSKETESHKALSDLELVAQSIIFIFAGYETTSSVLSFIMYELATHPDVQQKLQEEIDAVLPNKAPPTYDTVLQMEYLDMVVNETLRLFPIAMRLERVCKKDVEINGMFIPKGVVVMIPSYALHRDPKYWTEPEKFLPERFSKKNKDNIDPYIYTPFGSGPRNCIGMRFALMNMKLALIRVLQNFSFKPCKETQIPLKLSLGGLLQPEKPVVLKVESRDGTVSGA
CYP 2D6, sequence (P10635 whole entry): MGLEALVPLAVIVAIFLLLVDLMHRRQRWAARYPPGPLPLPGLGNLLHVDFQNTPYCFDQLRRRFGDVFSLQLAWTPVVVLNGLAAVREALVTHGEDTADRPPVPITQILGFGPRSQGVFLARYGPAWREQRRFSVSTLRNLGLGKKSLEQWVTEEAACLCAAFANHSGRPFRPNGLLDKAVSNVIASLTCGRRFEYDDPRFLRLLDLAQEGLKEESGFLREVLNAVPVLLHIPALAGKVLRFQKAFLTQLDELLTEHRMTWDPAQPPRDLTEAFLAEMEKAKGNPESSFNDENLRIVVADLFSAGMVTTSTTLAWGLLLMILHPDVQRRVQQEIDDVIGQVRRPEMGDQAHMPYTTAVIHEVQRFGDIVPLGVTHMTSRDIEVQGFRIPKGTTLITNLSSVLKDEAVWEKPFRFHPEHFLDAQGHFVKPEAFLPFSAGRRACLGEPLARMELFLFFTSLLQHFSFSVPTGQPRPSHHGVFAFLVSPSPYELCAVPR
CYP 2C9, sequence (P11712 whole entry): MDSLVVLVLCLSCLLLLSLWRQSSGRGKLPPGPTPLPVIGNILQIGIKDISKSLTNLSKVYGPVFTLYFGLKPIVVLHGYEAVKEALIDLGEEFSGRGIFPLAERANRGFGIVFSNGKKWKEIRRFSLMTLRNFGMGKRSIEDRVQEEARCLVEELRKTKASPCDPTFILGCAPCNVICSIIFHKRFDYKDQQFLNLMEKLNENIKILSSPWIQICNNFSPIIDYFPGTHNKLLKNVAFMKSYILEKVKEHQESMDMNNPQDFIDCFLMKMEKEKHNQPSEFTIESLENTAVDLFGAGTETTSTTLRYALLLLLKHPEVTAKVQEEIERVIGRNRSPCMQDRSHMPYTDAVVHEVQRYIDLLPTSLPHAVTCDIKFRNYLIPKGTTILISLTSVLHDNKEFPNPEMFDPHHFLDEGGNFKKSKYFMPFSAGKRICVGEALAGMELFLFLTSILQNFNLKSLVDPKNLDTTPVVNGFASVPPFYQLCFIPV
CYP 1A2, sequence (P05177 whole entry): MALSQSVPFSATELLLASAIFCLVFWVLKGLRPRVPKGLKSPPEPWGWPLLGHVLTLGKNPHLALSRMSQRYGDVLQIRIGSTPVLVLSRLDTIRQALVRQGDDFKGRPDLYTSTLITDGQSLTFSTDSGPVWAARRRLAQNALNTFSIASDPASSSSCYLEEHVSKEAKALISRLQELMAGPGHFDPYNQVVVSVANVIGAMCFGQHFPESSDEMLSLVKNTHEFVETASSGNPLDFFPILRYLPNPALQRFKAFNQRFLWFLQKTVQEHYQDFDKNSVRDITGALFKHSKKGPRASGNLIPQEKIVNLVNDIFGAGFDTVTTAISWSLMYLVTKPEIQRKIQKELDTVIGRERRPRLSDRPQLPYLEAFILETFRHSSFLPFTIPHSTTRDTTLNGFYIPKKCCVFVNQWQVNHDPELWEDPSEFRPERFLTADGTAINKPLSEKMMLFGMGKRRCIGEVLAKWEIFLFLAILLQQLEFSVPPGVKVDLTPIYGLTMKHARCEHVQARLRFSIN
CYP 2C19, sequence (P33261 whole entry): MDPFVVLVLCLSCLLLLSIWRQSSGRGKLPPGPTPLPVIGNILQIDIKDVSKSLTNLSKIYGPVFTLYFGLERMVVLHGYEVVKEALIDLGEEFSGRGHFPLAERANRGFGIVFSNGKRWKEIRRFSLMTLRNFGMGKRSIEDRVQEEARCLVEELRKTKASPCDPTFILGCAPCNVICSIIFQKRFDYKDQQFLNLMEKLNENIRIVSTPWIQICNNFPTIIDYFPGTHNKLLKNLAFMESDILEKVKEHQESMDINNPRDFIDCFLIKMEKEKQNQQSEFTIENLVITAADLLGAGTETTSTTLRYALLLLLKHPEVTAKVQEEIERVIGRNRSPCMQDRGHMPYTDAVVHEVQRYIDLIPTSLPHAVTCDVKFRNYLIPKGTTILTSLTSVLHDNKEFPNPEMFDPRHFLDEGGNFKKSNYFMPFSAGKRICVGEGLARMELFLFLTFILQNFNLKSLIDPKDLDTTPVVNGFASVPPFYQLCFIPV

IC50 ([1]; U87, 24-hour growth inhibition): ≥ 1000 µM
metabolite generated by PSA 95 [3]: no detectable
Compound: CC1=C(CC(=O)O)c2cc(F)ccc2/C1=C\c1ccc([S+](C)[O-])cc1 (stereo not drawn) [Sulindac, sulindac, reference compound]
inhibition of growth of xenografts [2]: 32%

AUC in lung [4]: 57.5
Tmax in lung [4]: 8 h
Tmax in plasma [4]: 8 h
metabolite generated by PSA 95 [5]: no detectable
Compound: CC1=C(CC(=O)O)c2cc(F)ccc2/C1=C\c1ccc(S(C)(=O)=O)cc1 [Sulindac sulfone, sulindac sulfone]

Compound: CCOP(=O)(OCC)OCCCCOC(=O)c1ccccc1OC(C)=O [PA-III 506, phospho-aspirin]
reduction of average tumor volume compared to controls ([6]; 120 mg/kg/d orally): 62%
treated mice that had no tumors [6, 19]: 20%
treated mice that had tumors <100 mm^3 [6, 19]: 30%
maximum tolerated dose (MTD) [7]: > 1,600 mg/kg
intact compound in plasma or xenografts [8]: No intact PA-III 506 in either plasma or xenografts was detected

accumulation in A431 cells (A431 skin cancer cells; limit of detection 2.5 pmol): no significant accumulation
Compound: CC(C)Cc1ccc(C(C)C(=O)OCCCCOP(=O)(O)O)cc1 (stereo not drawn) [phospho-ibuprofen phosphate 505]

Compound: CCOP(=O)(OCC)OCCc1ccc(OC(=O)Cc2c(C)n(C(=O)c3ccc(Cl)cc3)c3ccc(OC)cc23)cc1 [Compound 93]
heart histology vs healthy control mice [9]: no differences
reduction of tumor growth (SW480 colon cancer cells): 85%
AUCtotal of PTI relative to indomethacin ([10]; FIG. 19, equimolar i.p. doses): about 3.5 times
time at which PTI became undetectable post administration ([10]; single i.p. dose 100 mg/kg PTI): 4 h
time of maximum concentration of PTI ([10]; single i.p. dose 100 mg/kg PTI): 2 h
gastric damage, H&E stained gastric tissue sections ([11]; FIG. 18A): not
reduction of ulcers compared to indomethacin ([11]; day 5, PTI 10 mg/kg/day): 60%
rats that developed ulcers ([11]; day 5, gavage 4 days, indomethacin 4.75 mg/kg/day, PTI 10 mg/kg/day): 40%
genotoxicity [12]: no genotoxicity

oxidation (conversion to 5-OH-PSA) by CYP 2C19 (CYP 2C19): cannot be oxidized
oxidation (conversion to 5-OH-PSA) by CYP 2D6 (CYP 2D6): cannot be oxidized
oxidation by CYP 2C9 (CYP 2C9): cannot be oxidized
oxidation by CYP 3A4 (CYP 3A4): cannot be oxidized
oxidation by CYP 1A2 (CYP 1A2): cannot be oxidized
Compound: CC(=O)Oc1ccccc1C(=O)O [ASA, acetylsalicylic acid]
effect on BC xenograft growth ([6]; 40 mg/kg/d): no effect

Compound: CCOP(=O)(OCC)OCCCCOC(=O)c1ccccc1SC/C=C(\C)CC/C=C(\C)CCC=C(C)C [Compound 67]
pancreatic cancer cell growth, % control [13]: decreases pancreatic cancer cell growth in a concentration-dependent manner
reduction of tumor volume growth (MIA PaCa-2 cells; 50 mg/kg/d oral gavage): 62%
reduction of tumor volume growth (MIA PaCa-2 cells; 100 mg/kg/d oral gavage): 65%
tolerability in the efficacy study (MIA PaCa-2 cells; 50 or 100 mg/kg/d oral gavage, 25 days): well tolerated
weight loss or other signs of toxicity ([14]; 75, 150, 250 and 350 mg/kg oral gavage once a day for 3 weeks): no weight loss or other signs of toxicity
(sub-chronic) maximum tolerated dose ([14]; oral gavage once a day, 3-week period of observation): at least 350 mg/kg/d
inhibition of active Ras (Ras-GTP) [15]: significantly inhibited
reduction of RAS activation in xenografts ([16]; 50 mg/kg): 62%
reduction of RAS activation in xenografts ([16]; 100 mg/kg): 70%
reduction of expression of p-c-RAF (p-c-RAF): 73%
reduction of expression of p-ERK1/2 (p-ERK1/2): 71%

Compound: CCOP(=O)(OCC)OCCCCOC(=O)C(C)c1ccc(CC(C)C)cc1 (stereo not drawn) [Compound 2, phospho-ibuprofen]
IC50 ([1]; 24 h): 98 µM
stability and circulation in blood [17]: rapidly hydrolyzed
level inside the cells (A431 skin cancer cells; 100 pM): 0.75 nM
increase over the other two compounds (A431 skin cancer cells; limit of detection 2.5 pmol): ≥ 300 fold

Compound: CCOP(=O)(OCC)OCC(CNC(=O)CC1=C(C)/C(=C/c2ccc([S+](C)[O-])cc2)c2ccc(F)cc21)OP(=O)(OCC)OCC (stereo not drawn) [Compound 99, (Z)-tetraethyl 3-(2-(5-fluoro-2-methyl-1-(4-(methylsulfinyl)benzylidene)-1H-inden-3-yl)acetamido)propane-1,2-diyl diphosphate]
MTD at 1 week (in vivo): > 500 mg/kg/day

IC50 ([1]; U87, 24-hour growth inhibition): ≥ 1000 µM
accumulation in A431 cells (A431 skin cancer cells; limit of detection 2.5 pmol): no significant accumulation
Compound: CC(C)Cc1ccc(C(C)C(=O)O)cc1 (stereo not drawn) [ibuprofen, reference compound]

Tmax ([10]; mouse, plasma, ip, 58 mg/kg): 1 h
Compound: COc1ccc2c(c1)c(CC(=O)O)c(C)n2C(=O)c1ccc(Cl)cc1 [indomethacin, reference compound]
gastric damage, H&E stained gastric tissue sections [18]: caused gastric damage
